In patent US20250339396A1 (COSMAS THERAPEUTICS DEVELOPMENT INC., priority 2021, published 2025):

What was measured:
[1] = Pharmacokinetic study in male rats (UCM924 measured in plasma); assay type: in vivo; conditions: Sprague-Dawley, rat, po, UCM924 plasmatic level, UCM924 20 mg/kg per os
Experimental: In vivo pharmacokinetic studies of prodrug D were carried in male rats (Sprague-Dawley, weight 210-214 grams) and male dogs (Beagles, weight 8960-9820 grams). Animals were housed under standard conditions and had free access to water and standard laboratory diet. Care and husbandry of animals were in conformity with the institutional guidelines, in compliance with national and international laws and policies (EEC Council Directive 86/609, OJL 358m, 1, Dec. 122, 1987; NIH Guide for the care and Use of Laboratory Animals, NIH Publication No. 86-23, 1985). The compounds were dissolved in water containing 40% PEG 400 at a concentration of 15 mg/ml (clear solution) for the PO dose for Dog, or in water containing 40% PEG 400 at a concentration of 12.5 mg/ml (clear solution) for the PO dose for Rat. Rats were randomly assigned to treatment groups (n=3) and received a single oral administration (50 mg/kg) of Prodrug D and the level of the active metabolite UCM924 was then measured. Serial blood samples (200 uL) were collected from caudal vein at 5, 15, 30, 60, 120, 240, 360, 480 and 1440 min after PO administration. Blood samples were collected into a prechilled commercial tube (Jiangsu Kangjian medical supplies co., LTD) containing Potassium (K2) EDTA (0.85-1.15 mg). […] UCM924 (20 mg/kg) was also administered per os in rats and IV in dogs (2 mg/kg) and it was measured in plasma. […]

[2] = Oral bioavailability and brain penetrance of UCM765 and UCM924
[3] = Stability of Prodrug D in solvents by HPLC; assay type: physicochemical; conditions: HPLC Method 2
Experimental: For this test, we used HPLC with different solvent systems. […] Therefore, after initial assessment, this method was used for the remaining tests. Prodrug D or UCM924 (comparator) were dissolved in the different solvents listed in the table below and, after the waiting period indicated, HPLC tests were carried out according to the above. The results are shown in the table below, in which the percentages represent the quantity of prodrug D or UCM924 detected in the samples.

[4] = in vivo; cited from earlier work
[5] = in vivo; cited from earlier work; remark: listed apart in the source
[6] = Pharmacokinetic study in male Beagle dogs (UCM924 measured in plasma); assay type: in vivo; conditions: dog, UCM924 plasmatic level, UCM924 2 mg/kg IV
Experimental: In vivo pharmacokinetic studies of prodrug D were carried in male rats (Sprague-Dawley, weight 210-214 grams) and male dogs (Beagles, weight 8960-9820 grams). Animals were housed under standard conditions and had free access to water and standard laboratory diet. Care and husbandry of animals were in conformity with the institutional guidelines, in compliance with national and international laws and policies (EEC Council Directive 86/609, OJL 358m, 1, Dec. 122, 1987; NIH Guide for the care and Use of Laboratory Animals, NIH Publication No. 86-23, 1985). The compounds were dissolved in water containing 40% PEG 400 at a concentration of 15 mg/ml (clear solution) for the PO dose for Dog, or in water containing 40% PEG 400 at a concentration of 12.5 mg/ml (clear solution) for the PO dose for Rat. Dogs were randomly assigned to treatment groups (n=3) and received a single oral administration (15 mg/kg) through oral gavage of Prodrug D and the level of the active metabolite UCM924 was then measured. Serial blood samples (200 uL) were collected from caudal vein at 5, 15, 30, 60, 120, 240, 360, 480 and 1440 min after PO administration. […] UCM924 (20 mg/kg) was also administered per os in rats and IV in dogs (2 mg/kg) and it was measured in plasma. […]

CC(=O)NCCN(c1ccc(F)cc1)c1cccc(Br)c1 [UCM924, N-{2-[(3-bromophenyl)-(4-fluorophenyl)amino]ethyl}acetamide]
AUC(0-t) [1]: 97.7 ± 61 ng·h/mL
Cmax [1]: 42 ± 34 ng/mL
Kp ([2]; brain): 2.5
bioavailability ([2]; in vivo, po): 6%
quantity detected in the sample by HPLC ([3]; 1N HCl, overnight at rt, pH ~0): 14.79%
quantity detected in the sample by HPLC ([3]; 40% PEG400:60% H2O, overnight at rt, pH ~7.0): 40.16%
quantity detected in the sample by HPLC ([3]; H2O, overnight at rt, pH ~7.0): 80.09%
quantity detected in the sample by HPLC ([3]; Saturated NaHCO3aq, 2 h at rt, pH ~8.5): 62.33%
motor impairments in the RotaRod test [4]: did not produce any motor impairments
antinociceptive properties in tests for chronic neuropathic pain [5]: potent antinociceptive properties
AUC(0-t) [6]: 1690 ± 275 ng·h/mL
half-life [6]: 1.79 ± 0.4 h
